The values below come from PubChem BioAssay AID1996.

Converted amounts (≈) assume the structure as drawn.

For the data set the following is noted: buffer; pH 7.4; 200.0 µM.
Turning to `O=C(Nc1sc2c(c1C(=O)O)CCC2)c1ccccc1Cl`, the kinetic solubility (commonly solubility judged after dilution from a stock solution rather than from solid) is 41.1 µg/mL (≈ 128 µM).
As for `O=C(NC1CCN(S(=O)(=O)c2ccc(F)cc2)CC1)c1ccco1`, the solubility (kinetic) stood at 17.5 µg/mL (≈ 49.7 µM).
Compound `CCSc1nc(NCCN(C)C)c2c3c(sc2n1)COC(C)(CC)C3` (stereo not given) showed a solubility (kinetic) of 46.4 µg/mL (≈ 122 µM).
In turn, `Cc1ccc2c(c1)N(CC(=O)N1CCOCC1)C(=O)CO2` registered a kinetic solubility above 43.5 µg/mL.
In turn, `O=C(Nc1ccc(CN2CCOCC2)cc1)c1cc(Cl)ccc1Cl` gave a solubility (kinetic) of 50.1 µg/mL (≈ 137 µM).
As to `CC(C)CC(=O)NC1(C(F)(F)F)NC(=O)N(c2ccccc2)C1=O` (stereo not given), the solubility (kinetic) is 45.8 µg/mL (≈ 133 µM).
With `CCn1c(SCc2ccccc2)nc2ccccc2c1=O`, the kinetic solubility is 1.3 µg/mL (≈ 4.39 µM).
Compound `CCOc1ccc(NC(=O)CSc2ccccc2N)cc1` came in with a solubility (kinetic) above 45.4 µg/mL.
`Cc1nc(SCC(=O)NC2CCCC2)[nH]c(=O)c1C` gave a solubility (kinetic) of 38.4 µg/mL (≈ 136 µM).
Compound `Cc1nnc(NC(=O)c2ccc3nccnc3c2)s1` gave a solubility (kinetic) above 40.7 µg/mL.
Compound `CC1CCCCC1NC(=O)COc1ccc(C#N)cc1` (stereo not given) came in with a kinetic solubility above 40.9 µg/mL.
`COc1ccc2c(c1OC)C(=O)N(c1ccc(O)cc1)C2=O` returned a kinetic solubility of 41.4 µg/mL (≈ 138 µM).
Compound `CCOC(=O)c1cc(C(C)(C)C)nc(SC)c1C#N` returned a solubility (kinetic) of 1.3 µg/mL (≈ 4.67 µM).
With `O=C(O)c1cc2nccc(-c3ccco3)n2n1`, the solubility (kinetic) is above 34.4 µg/mL.
`O=C(/C=C/c1ccc([N+](=O)[O-])cc1)OCC(=O)N1CCOCC1` returned a solubility (kinetic) of 10.1 µg/mL (≈ 31.5 µM).
In the case of `O=C(Nc1ccc(Br)cc1)Nc1cnccn1`, the solubility (kinetic) came out at 3 µg/mL (≈ 10.2 µM).
For `CC(=O)Nc1ccc2nsnc2c1`, the solubility (kinetic) is above 29 µg/mL.
Regarding `O=C(CN1C(=O)NC2(CCCC2)C1=O)NCc1ccc(Cl)cc1`, the kinetic solubility is above 50.4 µg/mL.
In turn, `O=C1CSC(c2cccc([N+](=O)[O-])c2)N1c1ccccc1F` (stereo not given) came in with a kinetic solubility of 37.7 µg/mL (≈ 118 µM).
In turn, `Cc1ccc(S(=O)(=O)Nc2ncnc3ccccc23)cc1` came in with a kinetic solubility above 44.9 µg/mL.
Consider `CN1C(=O)/C(=C\c2ccccc2OCc2ccccc2)SC1=S`, for which the solubility (kinetic) is below 0.7 µg/mL.
To `CCCSc1nsc(NC(=O)c2cccnc2OCC)n1` belongs 0.5 µg/mL (≈ 1.54 µM); to `Cc1cc2[nH]cnc2c([N+](=O)[O-])c1C`, above 28.7 µg/mL.
For `O=C(N/C(=C/c1cccs1)C(=O)N1CCCC1)c1ccccc1`, the solubility (kinetic) was 46.5 µg/mL (≈ 142 µM).
With `O=C(NCc1ccccc1)c1c[nH]c2ccccc2c1=O`, the solubility (kinetic) was 39.3 µg/mL (≈ 141 µM).
For the compound `COc1ccc(S(=O)(=O)N2CCOCC2)cc1C(=O)N(C)Cc1ccco1`, the solubility (kinetic) is above 59.2 µg/mL.
In turn, `CCc1nc2ccccc2c(C(=O)NCc2ccccc2)c1C` displayed a kinetic solubility of 33.9 µg/mL (≈ 111 µM).
With `CC(C)N(Cc1ccccc1)C(=S)NCc1ccccc1`, the kinetic solubility was 19.4 µg/mL (≈ 65 µM).
Turning to `Cc1ccc(S(=O)(=O)N(C)CC(=O)NNC(=O)CCNS(=O)(=O)c2cccc(C)c2)cc1`, the solubility (kinetic) was above 72.4 µg/mL.
`COc1ccc(C)cc1S(=O)(=O)N1CCc2ccccc2C1` yielded a solubility (kinetic) of 18.1 µg/mL (≈ 57 µM).
The compound `Cc1nc(-c2ccc(-c3ccon3)s2)no1` came in with a kinetic solubility of 16.6 µg/mL (≈ 71.2 µM).
As to `Cc1ccccc1CN1CCN(CC(=O)NCc2ccccc2)CC1`, the solubility (kinetic) is above 50.6 µg/mL.
In turn, `CC1CCN(CCC(=O)N/N=C/c2ccc([N+](=O)[O-])cc2)CC1` came in with a kinetic solubility above 47.8 µg/mL.
To `CSc1ncccc1C(=O)OCC(=O)Nc1ccc(N2CCOCC2)cc1` belongs 10.6 µg/mL (≈ 27.4 µM); to `COc1ccc(OC)c(/C=N/OC(=O)Nc2ccc(Cl)cc2)c1`, 8.3 µg/mL (≈ 24.8 µM).
On to `COc1ccccc1OCCn1c(SCC(=O)O)nc2ccccc21`, for which the solubility (kinetic) is above 53.8 µg/mL.
Take `CC(C)C[C@H](NC(=O)NCc1ccc(F)cc1)C(=O)O`: the solubility (kinetic) was above 42.3 µg/mL.
On to `O=[N+]([O-])c1ccc(CSc2ccc(S(=O)(=O)N3CCCCC3)cn2)cc1`, for which the solubility (kinetic) was determined as 2.4 µg/mL (≈ 6.1 µM).
In turn, `COC(=O)c1cc(CSc2ncnc3sccc23)oc1C` showed a solubility (kinetic) of 4.3 µg/mL (≈ 13.4 µM).
`O=C(OCc1cccc([N+](=O)[O-])c1)c1ccc[nH]c1=O` had a solubility (kinetic) above 41.1 µg/mL.
In the case of `O=S(=O)(c1cccs1)N1CN(C2CCCC2)c2nc3ccccc3nc21`, the kinetic solubility was 8.1 µg/mL (≈ 21 µM).
Compound `COC(=O)c1cc(Cl)nc2ccccc12` gave a solubility (kinetic) of 7.9 µg/mL (≈ 35.6 µM).
To `COc1ccc(NC(=O)Nc2nc(C)cc(C)n2)c(OC)c1` belongs above 45.3 µg/mL; to `CCCc1nc(NCCO)c(C#N)c2c1CCCC2`, above 38.9 µg/mL.
Then `COC(=O)C1=C(N)OC2=C(C(=O)CC(C)(C)C2)C1c1ccccc1OC` (stereo not given), with above 53.6 µg/mL; and `O=C1Nc2ccccc2C1(O)c1ccccc1O` (stereo not given), with above 36.2 µg/mL; and `O=C(O)c1ccc2c(c1)C(=O)N(c1ccc([N+](=O)[O-])cn1)C2=O`, with above 47 µg/mL.
The compound `O=C(COC(=O)c1cc(=O)[nH]c(=O)[nH]1)Nc1cccc(Cl)c1` yielded a solubility (kinetic) above 48.6 µg/mL.
Take `O=C(Nc1ccccc1)OCCOc1ccccc1Br`: the solubility (kinetic) is below 0.7 µg/mL.
To `O=C(Cc1cccs1)N1CCN=C1SCc1ccccc1Cl` belongs 6.6 µg/mL (≈ 18.8 µM); to `COc1ccc2c(c1)nc(CN1CCN(CCO)CC1)n2C`, above 45.7 µg/mL.
For the compound `COc1ccc(CN(C(C)=O)c2ccccc2C(=O)O)cc1`, the solubility (kinetic) turned out to be 43.7 µg/mL (≈ 146 µM).
With `Cc1ccc(S(=O)(=O)NCC2CCCO2)cc1` (stereo not given), the kinetic solubility is above 38.3 µg/mL.
To `O=P(C(=NCCO)NO)(N1CCOCC1)N1CCOCC1` belongs above 48.3 µg/mL.
Then `CC1Oc2ccccc2N(CC(=O)NC2CCCC2)C1=O` (stereo not given), with above 43.3 µg/mL; and `Cl.Fc1ccc(Nc2ncnc3ccccc23)cc1`, with 36.8 µg/mL.
`On1c(-c2ccccc2Cl)nc2ncccc21` returned a solubility (kinetic) above 36.9 µg/mL.
Then `CC(=O)c1cccc(NC(=O)N2CCOCC2)c1`, with above 37.2 µg/mL; and `O=C(Nc1ccccc1)Nc1ccccc1C(=O)NCCCN1CCOCC1`, with 46.3 µg/mL (≈ 121 µM); and `O=C(NCC1CCCO1)c1ccc(NC(=O)c2cccc([N+](=O)[O-])c2)cc1` (stereo not given), with 3.5 µg/mL (≈ 9.48 µM).
Take `Cl.N=c1ccn(Cc2c(Cl)cccc2Cl)cc1`: the kinetic solubility was above 43.4 µg/mL.
As for `CN(C)C(=O)c1ccc(OCC(F)(F)F)nc1`, the solubility (kinetic) amounted to 36.7 µg/mL (≈ 148 µM).
Compound `N#CCCN(Cc1ccccc1)C(=O)Nc1ccc2c(c1)CCO2` had a kinetic solubility of 21.7 µg/mL (≈ 67.5 µM).
Then `O=C(NCc1nc(-c2ccc(C(F)(F)F)cc2)no1)c1cccs1`, with 7.1 µg/mL (≈ 20.1 µM); and `COc1ccc(CCN2Cc3c(N)cccc3C2=O)cc1OC`, with above 46.9 µg/mL; and `CC(C)(C)c1ccc(N2C(=O)CSC2c2cccnc2)cc1` (stereo not given), with 43 µg/mL (≈ 138 µM).
Consider `O=[N+]([O-])c1ccc2nc(-c3ccncc3)[nH]c2c1`, for which the solubility (kinetic) turned out to be 8 µg/mL (≈ 33.3 µM).
To `O=C(COc1cccc(C(F)(F)F)c1)Nc1cccnc1` belongs above 44.4 µg/mL; to `CC1CCC(NS(=O)(=O)c2ccc(Cl)nc2)CC1` (stereo not given), 33.9 µg/mL (≈ 117 µM); to `Cc1nc(NC(=O)CSC2=NCCS2)sc1C(=O)N(C)C`, above 51.7 µg/mL.
As for `Clc1ccc(/C=C/c2ncc[nH]2)c(Cl)c1`, the kinetic solubility is 7.7 µg/mL (≈ 32.2 µM).
Then `Cc1c(C(=O)O)c(C(=O)O)c2n1CCS2`, with above 34.1 µg/mL; and `COc1ccc(CN2CN(C3CCCC3)CSC2=S)cc1`, with 0.8 µg/mL (≈ 2.48 µM).
`CC(=O)Nc1ccc(S(=O)(=O)NC2CCCCCC2)cc1` yielded a solubility (kinetic) of 35.1 µg/mL (≈ 113 µM).
On to `CCn1c(SCc2ccccc2)nc2c(c1=O)SCC2`, for which the kinetic solubility came to 13.5 µg/mL (≈ 44.3 µM).
On to `O=C(/C=C/c1ccco1)N(Cc1ccc(Cl)cc1)C1CCS(=O)(=O)C1` (stereo not given), for which the solubility (kinetic) is 46.2 µg/mL (≈ 122 µM).
Compound `Nc1nc(-c2c(Cl)cccc2Cl)no1` had a solubility (kinetic) of 32.7 µg/mL (≈ 142 µM).
On to `CC1CCC(NC(=O)CN2C(=O)NC(C)(C)C2=O)CC1` (stereo not given), for which the kinetic solubility is above 42.2 µg/mL.
With `NS(=O)(=O)c1ccc(CCNC(=O)c2ccc3ccccc3n2)cc1`, the solubility (kinetic) was found to be 10.6 µg/mL (≈ 29.8 µM).
On to `CCN(CC)S(=O)(=O)c1ccc(C(=O)Nc2cc(S(=O)(=O)N3CCOCC3)ccc2O)cc1`, for which the kinetic solubility is 12.2 µg/mL (≈ 24.5 µM).
`CCCCN1C(=O)N(C)C2NC(=S)NC21` (stereo not given) had a solubility (kinetic) above 34.2 µg/mL.
Compound `COc1ccc(NC(=O)COC(=O)CCc2nc3ccccc3c(=O)[nH]2)cc1Cl` yielded a solubility (kinetic) of 59.7 µg/mL (≈ 144 µM).
The compound `CCOC(=O)c1c(S(=O)(=O)N2CCCC2)c(C)n(C)c1C` displayed a solubility (kinetic) above 47.2 µg/mL.
Regarding `COCCN(C(=S)Nc1cccc(C)c1)C(C)c1cccnc1` (stereo not given), the solubility (kinetic) is 48.2 µg/mL (≈ 146 µM).
As for `CN(C)CCn1c(N)nc2ccccc21`, the solubility (kinetic) was above 30.6 µg/mL.
In the case of `Cc1ccc(C(=O)Nc2ncc(C)s2)s1`, the kinetic solubility stood at 7.1 µg/mL (≈ 29.8 µM).
As for `Cc1ccc(S(=O)(=O)N2CCN(C(=O)c3ccco3)CC2)cc1C`, the kinetic solubility turned out to be 46 µg/mL (≈ 132 µM).
In turn, `Cc1noc(C(=O)Nc2cc(Cl)ccc2O)c1Cl` yielded a solubility (kinetic) of 1.7 µg/mL (≈ 5.92 µM).
`Cc1ccc(C(=O)Nc2ccc3c(c2)OCCO3)c(C)c1` gave a solubility (kinetic) above 42.5 µg/mL.
In turn, `S=C(NCCCc1ccccc1)Nc1ccccc1` displayed a kinetic solubility of 31.9 µg/mL (≈ 118 µM).
In turn, `CCC(=O)N(CCC(c1ccco1)C(C)C)Cc1ccccc1` (stereo not given) showed a kinetic solubility of 23.7 µg/mL (≈ 75.6 µM).
In turn, `CC1(C)Cc2c(C#N)c(N)n(-c3ccccc3)c(=S)c2CO1` had a kinetic solubility above 46.7 µg/mL.
With `CSc1nc2nc3c(cc2c(=O)n1-c1ccccc1C)CCCC3`, the kinetic solubility worked out at 37.9 µg/mL (≈ 112 µM).
To `COC(=O)Cn1c(N2CCCC2)nc2c1c(=O)n(C)c(=O)n2C` belongs above 48.2 µg/mL; to `S=C(NC1CCCCC1)N1CCCCC1`, 26.3 µg/mL (≈ 116 µM).
To `Cc1cc(C)c2c(N)c(C(=O)Nc3ccccc3F)sc2n1` belongs 0.4 µg/mL (≈ 1.27 µM); to `COC(=O)c1ccc(S(=O)(=O)N2CCCCCC2)n1C`, above 45.1 µg/mL.
To `COc1ccc(C(=O)O)cc1S(N)(=O)=O` belongs above 34.7 µg/mL.
Regarding `O=C(NC1CC2CCCC(C1)N2C(=O)Nc1ccccc1)c1ccccc1` (stereo not given), the solubility (kinetic) came to 4.6 µg/mL (≈ 12.7 µM).
The compound `O=C(NCCNc1ccc([N+](=O)[O-])cc1)c1cc(F)c(F)cc1Cl` gave a solubility (kinetic) of 2 µg/mL (≈ 5.62 µM).
With `COc1cccc2cc(C(=O)N3CCCCCCC3)c(=O)oc12`, the kinetic solubility is above 47.3 µg/mL.
Regarding `Nc1nc(Nc2cccc(F)c2)nc(NCCO)c1[N+](=O)[O-]`, the kinetic solubility was 12.8 µg/mL (≈ 41.5 µM).
Compound `C=CCn1c(C(O)c2ccccc2)nc2ccccc21` (stereo not given) gave a solubility (kinetic) of 24.2 µg/mL (≈ 91.6 µM).
Regarding `CC(C)CN1CCC(CN(C)Cc2nc(-c3cnccn3)no2)CC1`, the solubility (kinetic) came out at 45.2 µg/mL (≈ 131 µM).
In turn, `O=C(/C=C/c1ccc(F)cc1)NC(=S)Nc1ccccc1O` had a solubility (kinetic) of 1.8 µg/mL (≈ 5.69 µM).
